Counter-ions that a name gives are not always drawn.
The compounds below were run on amyloid β production in transfected H4 (human neuroglioma) cells stably expressing APP constructs (assay: In vitro cell-based assay of inhibitors of amyloid β production (ELISA)). Settings: Homo sapiens, 16 h, transfected H4 cells expressing APP, approximately 16 hours incubation, amyloid β in medium by ELISA; read-out: ACTIVITY (IC50, inhibition of amyloid β production).
Procedure, shortened: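 Plate wt/variant APP cells; ≥6 h later swap to medium + compound (10-100 μM screen); incubate ~16 h; sample medium; Aβ ELISA with C-terminal capture / N-terminal detection Abs; quantify vs Aβ standard curve.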

| IC50 [nM] | Compound |
| --- | --- |
| 100 to 500 | C[C@H](C(=O)NCc1ccco1)C(c1cc(Cl)ccc1F)S(=O)(=O)c1ccc(Cl)cc1 (stereo partly shown) [Example 1300] |
| 100 to 500 | C[C@H](C(=O)NC1CCCCCCC1)N(c1cc(Cl)ccc1F)S(=O)(=O)c1ccc(Cl)cc1 [Example 1345] |
| ≤ 25 | CNC(=O)OC[C@@H](C)N(c1cc(Cl)ccc1CO)S(=O)(=O)c1ccc(Cl)cc1 [Example 1280] |
| 100 to 500 | C[C@H](C(=O)NCC(C)(C)CO)N(c1cc(Cl)ccc1F)S(=O)(=O)c1ccc(Cl)cc1 [Example 1328] |

Same assay, conditions: Homo sapiens, 16 h, transfected H4 cells stably expressing APP constructs; approximately 16 hours incubation; amyloid β in medium by ELISA; read-out: ACTIVITY (IC50, inhibition of amyloid β production)

| IC50 [nM] | Compound |
| --- | --- |
| > 500 | COS(=O)(=O)CCC[C@@H](C)N(c1cc(Cl)ccc1Cl)S(=O)(=O)c1ccc(Cl)cc1 [Example 1195, methyl(4R)-4-[N-[2,5-dichlorophenyl][(4-chlorophenyl)sulfonyl]amino]pentylsulfonate] |
| ≤ 25 | C[C@H](COC(=O)N1CCCC1)N(c1cc(Cl)ccc1Cl)S(=O)(=O)c1ccc(Cl)cc1 [Example 1237, 4-Chloro-N-(2,5-dichlorophenyl)-N-[2-[[[pyrrolidin-1-yl]carbonyl]oxy]-R-1-methylethyl]benzenesulfonamide] |

Same assay, conditions: Homo sapiens, 16 h, transfected H4 cells stably expressing APP; approx. 16 h incubation; amyloid β in medium by ELISA; read-out: ACTIVITY (IC50, inhibition of amyloid β production)

| IC50 [nM] | Compound |
| --- | --- |
| 100 to 500 | CC(c1ccccc1OCCN(C)C(=O)NC(C)(C)C)N(c1cc(F)ccc1F)S(=O)(=O)c1ccc(Cl)cc1 (stereo not shown) [Example 724, N-[1-(2-{2-[[(tert-butylamino)carbonyl](methyl)amino]ethoxy}phenyl)ethyl]-4-chloro-N-(2,5-difluorophenyl)benzenesulfonamide] |

Same assay, conditions: Homo sapiens, 16 h, transfected H4 cells stably expressing APP; approximately 16 hours incubation; amyloid β in medium by ELISA; read-out: ACTIVITY (IC50, inhibition of amyloid β production)

| IC50 [nM] | Compound |
| --- | --- |
| > 500 | C[C@H](c1ccccc1OCCCN1CCCCC1)N(c1cc(Cl)ccc1CO)S(=O)(=O)c1ccc(Cl)cc1 [Example 1062, 4-chloro-N-[5-chloro-2-(hydroxymethyl)phenyl]-N-((1R)-1-{2-[3-(1-piperidinyl)propoxy]phenyl}ethyl)benzenesulfonamide hydrochloride] |
| > 500 | COc1cccc(C(=O)N2CCCCC2CCOc2ccccc2CN(c2cc(F)ccc2F)S(=O)(=O)c2ccc(Cl)cc2)c1 (stereo not shown) [Example 909, 4-chloro-N-(2,5-difluorophenyl)-N-(2-{2-[1-(3-methoxybenzoyl)-2-piperidinyl]ethoxy}benzyl)benzenesulfonamide] |
| > 500 | O=S(=O)(c1ccc(Cl)cc1)N(Cc1ccccc1OCCCN1CCCCC1)C1CCCCCC1 [Example 897, 4-chloro-N-cycloheptyl-N-{2-[3-(1-piperidinyl)propoxy]benzyl}benzenesulfonamide hydrochloride] |
| > 500 | O=S(=O)(c1ccc(Cl)cc1)N(Cc1ccccc1OCCCCCN1CCCCC1)c1ccccc1 [Example 976, 4-chloro-N-phenyl-N-(2-{[5-(1-piperidinyl)pentyl]oxy}benzyl)benzenesulfonamide hydrochloride] |

| Compound | IC50 [nM] |
| --- | --- |
| O=S(=O)(c1ccc(Cl)cc1)N(Cc1ccccc1OCCCNC1CC1)c1ccccc1 [Example 979, 4-chloro-N-{2-[3-(cyclopropylamino)propoxy]benzyl}-N-phenylbenzenesulfonamide hydrochloride] | > 500 |

Same assay, conditions: Table B; transfected H4 cells stably expressing APP; approximately 16 hours incubation; amyloid β in medium by ELISA; read-out: ACTIVITY (inhibitory concentration IC50, inhibition of amyloid β production)

| IC50 [nM] | Compound |
| --- | --- |
| ≤ 25 | c1cn(CCCNCC2CC2)cn1 [Example 58, N-cyclopropylmethyl-3-(1H)-imidazolylpropylamine] |
| ≤ 25 | C[C@H](O)CCOC(c1ccccc1)(c1ccccc1)c1ccccc1 [Example 25, (S)-4-triphenylmethylyloxy-2-butanol] |

Same assay, conditions: transfected H4 cells stably expressing APP constructs; approximately 16 hours incubation; amyloid β in medium by ELISA; read-out: ACTIVITY (IC50, inhibition of amyloid β production)

| Compound | IC50 [nM] |
| --- | --- |
| CSC1CCN(CCC[C@@H](C)N(c2cc(Cl)ccc2Cl)S(=O)(=O)c2ccc(Cl)cc2)C1 (stereo partly drawn) [Example 1144, 4-chloro-N-(2,5-dichlorophenyl)-N-[4-[(4-methylthio)-1-pyrrolidinyl]-1(R)-methylbutyl]benzenesulfonamide] | 100 to 500 |
| CC(C)N(CCCn1ccnc1)C(=O)OC[C@@H](C)N(c1cc(Cl)ccc1CO)S(=O)(=O)c1ccc(Cl)cc1 [Example 1252, 4-Chloro-N-[5-chloro-2-(hydroxymethyl)phenyl]-N-[2-[[[N′-[3-(1H-imidazol-1-yl)propyl]-N′-(2-methylethyl)amino]carbonyl]oxy]-(R)-1-methylethyl]benzenesulfonamide] | ≤ 25 |

Same assay, conditions: transfected H4 cells stably expressing APP; approx. 16 h incubation; amyloid β in medium by ELISA; read-out: ACTIVITY (IC50, inhibition of amyloid β production)

| IC50 [nM] | Compound |
| --- | --- |
| 100 to 500 | N-{3-[2-({[(4-chlorophenyl)sulfonyl]-2,5-difluoroanilino}methyl)phenoxy]propyl}-N-methylbenzamide [Example 800] |
| 100 to 500 | N-{3-[2-(1-{[(4-chlorophenyl)sulfonyl]-2,5-difluoroanilino}ethyl)phenoxy]propyl}-4-iodo-N-methylbenzamide [Example 719] |
| 100 to 500 | 2-((1R)-1-{[(4-chlorophenyl)sulfonyl]-2,5-difluoroanilino}ethyl)-5-fluorobenzyl 4-(trifluoromethyl)benzylcarbamate [Example 658] |
| 100 to 500 | 2-((1R)-1-{[(4-chlorophenyl)sulfonyl]-2,5-difluoroanilino}ethyl)benzyl butyl(methyl)carbamate [Example 720] |
| 100 to 500 | 2-chloro-N-{3-[2-(1-{[(4-chlorophenyl)sulfonyl]-2,5-difluoroanilino}methyl)phenoxy]propyl}-N-methylbenzamide [Example 774] |
| 100 to 500 | (2Z)-N-{3-[2-(1-{[(4-chlorophenyl)sulfonyl]-2,5-difluoroanilino}ethyl)phenoxy]propyl}-N-methyl-3-phenyl-2-propenamide [Example 738] |
| 100 to 500 | S-methyl 2-[2-(1-{[(4-chlorophenyl)sulfonyl]-2,5-difluoroanilino}ethyl)phenoxy]ethyl(ethyl)thiocarbamate [Example 771] |
| 100 to 500 | N-{3-[2-(1-{[(4-chlorophenyl)sulfonyl]-2,5-difluoroanilino}ethyl)phenoxy]propyl}-3,4-dimethoxy-N-methylbenzamide [Example 643] |
| 100 to 500 | N-{2-[2-(1-{[(4-chlorophenyl)sulfonyl]-2,5-difluoroanilino}ethyl)phenoxy]ethyl}-N-ethyl-3-methylbutanamide [Example 694] |

Same assay, conditions: transfected H4 cells stably expressing APP; approximately 16 hours incubation; amyloid β in medium by ELISA; Table B; read-out: ACTIVITY (IC50, inhibition of amyloid β production)

| IC50 [nM] | Compound |
| --- | --- |
| 25 to 50 | 2-((1R)-1-{[(4-chlorophenyl)sulfonyl]-2,5-difluoroanilino}ethyl)benzyl 1-piperidinecarboxylate [Example 284] |
| 100 to 500 | COC(=O)CS(=O)(=O)CCc1cc(F)ccc1[C@@H](C)N(c1cc(F)ccc1F)S(=O)(=O)c1ccc(Cl)cc1 [Example 478, Methyl ({2-[2-((1R)-1-{[(4-chlorophenyl)sulfonyl]-2,5-difluoroanilino}ethyl)-5-fluorophenyl]ethyl}sulfonyl)acetate] |

| Compound | IC50 [nM] |
| --- | --- |
| O=S(=O)(c1ccccc1)N(Cc1ccccc1OCCCN1CCC(O)C1)c1ccccc1 (stereo not shown) [Example 279, N-{2-[3-(3-hydroxy-1-pyrrolidinyl)propoxy]benzyl}-N-phenylbenzenesulfonamide Hydrochloride] | 25 to 50 |

Same assay, conditions: transfected H4 cells stably expressing APP; approximately 16 hours incubation; amyloid β in medium by ELISA; read-out: ACTIVITY (IC50, inhibition of amyloid β production)

| IC50 [nM] | Compound |
| --- | --- |
| 100 to 500 | N-{4-[2-(1-{[(4-chlorophenyl)sulfonyl]-2,5-difluoroanilino}ethyl)phenoxy]butyl}-N-methylacrylamide [Example 843] |
| > 500 | N-{3-[2-({[(4-chlorophenyl)sulfonyl]-2,5-difluoroanilino}methyl)phenoxy]propyl}-3,4-dimethoxy-N-methylbenzamide [Example 960] |
| 100 to 500 | N-{3-[2-(1-{[(4-chlorophenyl)sulfonyl]-2,5-difluoroanilino}ethyl)phenoxy]propyl}-2,3,4,5,6-pentafluoro-N-methylbenzamide [Example 828] |
